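Dose response: 5 concentrations. Exposure: 48 h. Format: 96-well plates. Endpoint: linear interpolation; highest concentration if not reached. At the GI50, growth is halved.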 Calls of active or inactive are those of the source. Rule as the data show it: active = GI50 up to about 1.1 µM and inactive = higher.
Tests used:
Assay in all cases: NCI tumour cell line growth inhibition, 48 h
OVCAR-8 = tested on: OVCAR-8
CAKI-1 = tested on: CAKI-1
KM12 = tested on: KM12
HCT-116 = tested on: HCT-116
SK-MEL-2 = tested on: SK-MEL-2
OVCAR-3 = tested on: OVCAR-3
HOP-92 = tested on: HOP-92
UACC-62 = tested on: UACC-62
HL-60 = tested on: HL-60
SK-MEL-5 = tested on: SK-MEL-5
NCI-H23 = tested on: NCI-H23
RXF 393 = tested on: RXF 393
SF-295 = tested on: SF-295
M14 = tested on: M14
SW-620 = tested on: SW-620
DU-145 = tested on: DU-145
HCC 2998 = tested on: HCC 2998
MDA-MB-231 = tested on: MDA-MB-231
PC-3 = tested on: PC-3
SR = tested on: SR

| Structure (SMILES) | GI50 (OVCAR-8) | GI50 (CAKI-1) | GI50 (KM12) | GI50 (HCT-116) | GI50 (SK-MEL-2) | GI50 (OVCAR-3) | GI50 (HOP-92) | GI50 (UACC-62) | GI50 (HL-60) | GI50 (SK-MEL-5) | GI50 (NCI-H23) | GI50 (RXF 393) | GI50 (SF-295) | GI50 (M14) | GI50 (SW-620) | GI50 (DU-145) | GI50 (HCC 2998) | GI50 (MDA-MB-231) | GI50 (PC-3) | GI50 (SR) |
| --- | --- | --- | --- | --- | --- | --- | --- | --- | --- | --- | --- | --- | --- | --- | --- | --- | --- | --- | --- | --- |
| CC(C(=O)OCc1ccccc1)(c1ccco1)N1C(=O)OC(c2ccccc2)C1c1ccccc1 (stereo not given) | > 100 µM (inactive) | > 100 µM (inactive) | > 25.8 µM (inactive) | > 100 µM (inactive) | > 100 µM (inactive) | > 100 µM (inactive) | > 100 µM (inactive) | 97.1 µM (inactive) | 3.81 µM (inactive) | > 30.1 µM (inactive) | > 100 µM (inactive) | > 100 µM (inactive) | > 100 µM (inactive) | > 100 µM (inactive) | > 100 µM (inactive) | > 100 µM (inactive) | > 100 µM (inactive) | > 30.5 µM (inactive) | 6.01 µM (inactive) | > 34.8 µM (inactive) |
| COC(=O)C1CC23C=CCN4CC(C2C)C2(c5ccccc5NC12)C43 (stereo not given) | > 100 µM (inactive) | > 100 µM (inactive) | > 100 µM (inactive) | > 100 µM (inactive) | > 100 µM (inactive) | > 100 µM (inactive) | > 100 µM (inactive) | > 100 µM (inactive) | 64 µM (inactive) | > 100 µM (inactive) | > 100 µM (inactive) | > 100 µM (inactive) | > 100 µM (inactive) | > 100 µM (inactive) | > 100 µM (inactive) | > 100 µM (inactive) | > 100 µM (inactive) | > 100 µM (inactive) | > 100 µM (inactive) | > 100 µM (inactive) |
| Cn1cc(-c2ccc(CCOC3CCCCO3)cc2)c2c(C#N)cccc21 (stereo not given) | > 100 µM (inactive) | > 100 µM (inactive) | 61.7 µM (inactive) | 43.3 µM (inactive) | 28.7 µM (inactive) | 67.8 µM (inactive) | > 100 µM (inactive) | 44.6 µM (inactive) | 19.9 µM (inactive) | > 100 µM (inactive) | 48.3 µM (inactive) | 45.3 µM (inactive) | 34.7 µM (inactive) | 37.8 µM (inactive) | 28.5 µM (inactive) | > 100 µM (inactive) | 35.7 µM (inactive) | 86.1 µM (inactive) | 27.2 µM (inactive) | 17.2 µM (inactive) |
| CCOC(=O)C1(C(N)=O)C(=O)c2ccncc2C1=O (stereo not given) | > 100 µM (inactive) | > 100 µM (inactive) | > 100 µM (inactive) | > 100 µM (inactive) | > 100 µM (inactive) | > 100 µM (inactive) | > 100 µM (inactive) | > 100 µM (inactive) | > 100 µM (inactive) | > 100 µM (inactive) | > 100 µM (inactive) | > 100 µM (inactive) | > 100 µM (inactive) | > 100 µM (inactive) | > 100 µM (inactive) | > 100 µM (inactive) | > 100 µM (inactive) | > 100 µM (inactive) | > 100 µM (inactive) | > 100 µM (inactive) |
| O=C(Oc1cccc(Cl)c1)c1cc2cc(CCl)ccc2oc1=O | > 100 µM (inactive) | 60.7 µM (inactive) | 28.6 µM (inactive) | 61.5 µM (inactive) | 12.6 µM (inactive) | 39.8 µM (inactive) | 19.8 µM (inactive) | 14.3 µM (inactive) | 19 µM (inactive) | 16.9 µM (inactive) | 59 µM (inactive) | 20.7 µM (inactive) | 71.1 µM (inactive) | 14.6 µM (inactive) | > 100 µM (inactive) | 22.8 µM (inactive) | 16 µM (inactive) | > 100 µM (inactive) | 26.1 µM (inactive) | 63.8 µM (inactive) |
| CCOC(CN(C)C(=S)Nc1cccc2ccccc12)OCC | > 10 µM (inactive) | > 10 µM (inactive) | > 10 µM (inactive) | > 10 µM (inactive) | > 10 µM (inactive) | > 10 µM (inactive) | 5.51 µM (inactive) | > 10 µM (inactive) | > 10 µM (inactive) | > 10 µM (inactive) | > 10 µM (inactive) | > 10 µM (inactive) | > 10 µM (inactive) | > 10 µM (inactive) | > 10 µM (inactive) | > 10 µM (inactive) | > 10 µM (inactive) | > 10 µM (inactive) | > 10 µM (inactive) | > 10 µM (inactive) |
| O=NN(CCCl)C(=O)NCCCl [CARMUSTINE] | 77.8 µM (inactive) | 71.9 µM (inactive) | 88.9 µM (inactive) | 73.6 µM (inactive) | 91 µM (inactive) | 83.6 µM (inactive) | 65.2 µM (inactive) | 23.8 µM (inactive) | 16.7 µM (inactive) | 78.7 µM (inactive) | 88.1 µM (inactive) | 76.2 µM (inactive) | 44.5 µM (inactive) | 78.7 µM (inactive) | 52.2 µM (inactive) | 169 µM (inactive) | 93.8 µM (inactive) | 91 µM (inactive) | 97.7 µM (inactive) | 14 µM (inactive) |
| [N-]=[N+]=C1C(=O)c2ccccc2-c2ccccc21 | 30.6 µM (inactive) | 37.4 µM (inactive) | 39.2 µM (inactive) | 28.1 µM (inactive) | 29.4 µM (inactive) | 40.9 µM (inactive) | 33.3 µM (inactive) | 22.3 µM (inactive) | 28.8 µM (inactive) | 15.7 µM (inactive) | 35 µM (inactive) | 15.6 µM (inactive) | 33 µM (inactive) | 44.6 µM (inactive) | 37.4 µM (inactive) | 30.9 µM (inactive) | 51.3 µM (inactive) | 36 µM (inactive) | 25.8 µM (inactive) | 24.5 µM (inactive) |
| CC(=O)Nc1ccc(S(=O)(=O)/N=C2\C=CC(=O)c3ccccc32)cc1 | 2.8 µM (inactive) | 17.3 µM (inactive) | 10.5 µM (inactive) | 5.24 µM (inactive) | 14.3 µM (inactive) | 2.45 µM (inactive) | 5.07 µM (inactive) | 5.51 µM (inactive) | 0.481 µM (active) | 2.88 µM (inactive) | 4.22 µM (inactive) | 6.38 µM (inactive) | 7.29 µM (inactive) | 4.44 µM (inactive) | 6.62 µM (inactive) | 7.4 µM (inactive) | 3.21 µM (inactive) | 2.78 µM (inactive) | 3.28 µM (inactive) | 2.25 µM (inactive) |
| c1ccc(COc2ccc(C[P+](c3ccccc3)(c3ccccc3)c3ccccc3)cc2)cc1 | 0.163 µM (active) | 6.79 µM (inactive) | 0.191 µM (active) | 0.104 µM (active) | 0.109 µM (active) | 0.146 µM (active) | 0.153 µM (active) | 0.195 µM (active) | 0.0682 µM (active) | 0.108 µM (active) | 0.2 µM (active) | 0.0395 µM (active) | 0.318 µM (active) | 0.366 µM (active) | 0.272 µM (active) | 0.304 µM (active) | 0.16 µM (active) | 0.776 µM (active) | 0.131 µM (active) | 0.46 µM (active) |
| [N-]=[N+]=CC(=O)COC(=O)c1ccccc1 | > 100 µM (inactive) | > 100 µM (inactive) | > 100 µM (inactive) | > 100 µM (inactive) | > 100 µM (inactive) | > 100 µM (inactive) | 78 µM (inactive) | > 100 µM (inactive) | > 100 µM (inactive) | > 100 µM (inactive) | > 100 µM (inactive) | > 100 µM (inactive) | > 100 µM (inactive) | > 100 µM (inactive) | > 100 µM (inactive) | > 100 µM (inactive) | > 100 µM (inactive) | > 100 µM (inactive) | > 100 µM (inactive) | 74.6 µM (inactive) |
| CCOC(=O)c1cc(-c2ccc(OC)cc2)c([N+](=O)[O-])[nH]1 | > 10 µM (inactive) | > 10 µM (inactive) | > 10 µM (inactive) | > 10 µM (inactive) | > 10 µM (inactive) | > 10 µM (inactive) | > 10 µM (inactive) | 7.78 µM (inactive) | > 10 µM (inactive) | 7.67 µM (inactive) | > 10 µM (inactive) | > 10 µM (inactive) | > 10 µM (inactive) | > 10 µM (inactive) | > 10 µM (inactive) | > 10 µM (inactive) | > 10 µM (inactive) | 0.1 µM (active) | > 10 µM (inactive) | > 10 µM (inactive) |
| NC(=O)c1ccc2c(c1)S(=O)(=O)c1ccccc1C2=O | 33.1 µM (inactive) | > 100 µM (inactive) | > 100 µM (inactive) | > 100 µM (inactive) | > 100 µM (inactive) | > 100 µM (inactive) | 63.2 µM (inactive) | > 100 µM (inactive) | > 100 µM (inactive) | > 100 µM (inactive) | > 100 µM (inactive) | > 100 µM (inactive) | 57.8 µM (inactive) | > 100 µM (inactive) | > 100 µM (inactive) | > 100 µM (inactive) | > 100 µM (inactive) | 65.2 µM (inactive) | > 100 µM (inactive) | > 100 µM (inactive) |
| Cc1nc2ccccc2c(=O)n1/N=C(\N=N\c1cc(Cl)ccc1Cl)c1ccccc1 | 65.9 µM (inactive) | > 57.3 µM (inactive) | 10.3 µM (inactive) | 17.4 µM (inactive) | 60.5 µM (inactive) | 53.2 µM (inactive) | 30.4 µM (inactive) | 45.8 µM (inactive) | 58.5 µM (inactive) | 36.2 µM (inactive) | 50.7 µM (inactive) | 63.5 µM (inactive) | 44.9 µM (inactive) | 54.7 µM (inactive) | 32.1 µM (inactive) | > 100 µM (inactive) | 32.1 µM (inactive) | > 100 µM (inactive) | 55.3 µM (inactive) | 44.8 µM (inactive) |
